Source: patent publication US20030108584A1, “Method for producing wax premixes” (priority 2000, published 2003)

Experiment: Breakdown of active substance during preparation of wax premix by the melt method
Assay type: physicochemical
Settings: comparative Example C, montan wax melt at 110° C.
Description: Preparation of a wax premix by the melt method.
32 parts by weight of montan wax in sheet form are heated, in a mixer, at 110° C. to give a melt. To this melt there are added
15 parts by weight of cyclosulfamuron in the form of particles with an average diameter of 5μ with stirring at 110° C. The resulting suspension is stirred at high speed for 10 minutes at 110° C. and then treated portionwise with
26.5 parts by weight of highly-disperse silica while stirring is continued at full mixer speed. The resulting flowable powder is cooled to room temperature with stirring and with addition of
26.5 parts by weight of talc.
This gives a wax premix consisting of agglomerated particles. Approximately 10 percent by weight of the cyclosulfamuron present are broken down.

cyclosulfamuron present broken down: Approximately 10 percent by weight
SMILES: COc1cc(OC)nc(NC(=O)NS(=O)(=O)Nc2ccccc2C(=O)C2CC2)n1 [cyclosulfamuron]
